Legend:
[1] = Prodrug conversion in Sprague-Dawley rat colon content suspension assessed as tofacitinib release measured upto 8 hrs by HPLC analysis; assay type: ADME, tissue-based
[2] = Chemical stability in simulated intestinal fluid assessed as parent compound remaining incubated for 12 hrs by LC-MS/MS analysis; assay type: ADME, physicochemical; details: simulated gi fluid
[3] = Chemical stability of compound in pH 4.5 PBS buffer at 100 uM incubated for 24 hrs by HPLC analysis; assay type: physicochemical; details: pH 4.5, 24 h
[4] = Chemical stability of compound in pH 7.4 PBS buffer at 100 uM incubated for 24 hrs by HPLC analysis; assay type: physicochemical; details: pH 7.4, 24 h
[5] = Chemical stability of compound in pH 1.2 HCl buffer at 100 uM incubated for 24 hrs by HPLC analysis; assay type: physicochemical; details: pH 1.2, 24 h
[6] = Chemical stability in simulated gastric fluid assessed as parent compound remaining incubated for 12 hrs by LC-MS/MS analysis; assay type: ADME, physicochemical; details: simulated gi fluid

Drug metabolism [1] [mmol/L/h]	Stability [2]	Stability [3]	Stability [4]	Stability [5]	Stability [6]	Compound
2.44	Stable	Stable	Stable	Stable	Stable	COc1cc(/N=N/c2ccc(O)c(C(=O)O)c2)ccc1COC(=O)N(C)CCN(C)C(=O)n1ccc2c(N(C)[C@H]3CN(C(=O)CC#N)CC[C@H]3C)ncnc21
1.6	Stable	Stable	Stable	Stable	Stable	Cc1cc(COC(=O)N(C)CCN(C)C(=O)n2ccc3c(N(C)[C@H]4CN(C(=O)CC#N)CC[C@H]4C)ncnc32)ccc1/N=N/c1ccc(O)c(C(=O)O)c1
2.93	Stable	Stable	Stable	Stable	Stable	C[C@@H]1CCN(C(=O)CC#N)C[C@@H]1N(C)c1ncnc2c1ccn2C(=O)N(C)CCN(C)C(=O)OCc1ccc(/N=N/c2ccc(O)c(C(=O)O)c2)c(Cl)c1

Reference: ChEMBL document CHEMBL5046297, “Discovery of a Colon-Targeted Azo Prodrug of Tofacitinib through the Establishment of Colon-Specific Delivery Systems Constructed by 5-ASA-PABA-MAC and 5-ASA-PABA-Diamine for the Treatment of Ulcerative Colitis” (J Med Chem, 2022)
